The values below come from US11850331B2, “Devices with anti-thrombogenic and anti-microbial treatment” (TELEFLEX MEDICAL INCORPORATED, priority 2013, dated 2023).

The conditions of data set [1]: background statement; cited from earlier work.
Data set [2] concerns human blood. The data set is described as follows: Fluid phase thrombin clotting time, alexidine versus chlorhexidine (Example 4). It is filed as biochemical. The note with it: for clotting time: 6.25 ug/mL; for Thrombin Clotting Time in whole blood: replicates 1-5. Here is the method: The following provides a side-by-side comparison of alexidine with chlorhexidine. Fluid phase experiments were conducted to compare the influences of alexidine and chlorhexidine on thrombin clotting time (Table 6). […] The reaction mixtures contained freshly drawn human blood, alexidine or chlorhexidine as indicated, and exogenously added thrombin. The experiment was repeated five times, as indicated by replicates 1-5. The concentrations of alexidine or chlorhexidine that were used in the experiments were zero ug/mL (baseline), 3.125, 6.25, 12.5, 25, 50, or 100 ug/mL, as indicated. […] This dramatic difference was also observed when higher concentrations of antimicrobials were used in the clotting reactions.

The test system of data set [3] is human blood. The data set is described as follows: Thrombin clotting time in whole blood, alexidine solutions (Example 1). It is filed as biochemical. The settings on record: partial clotting. The method, then:
Solutions of varying alexidine concentrations (50-300 micrograms/mL) were incubated in individual test tubes, each containing 0.50 mL of human blood. The human blood was supplemented with 3.8% sodium citrate. The incubation was for 1 hour on a gyratory shaker set at 24 rpm and 37 degrees C. After 1 hour, 10 microliters of 500 Units/mL thrombin, and 60 microliters of 200 mM CaCl2 was added to each of the incubating blood samples. Blood clotting time was then measured using a stop watch. Table 1 discloses the results.

In the case of `CCCCC(CC)CNC(=N)NC(=N)NCCCCCCNC(=N)NC(=N)NCC(CC)CCCC` (stereo not shown) [alexidine], the solubility in water result in data set [1] is given as “relatively low solubility in water”. The clotting time result in data set [2] is reported as “about five”. The “Thrombin Clotting Time in whole blood” value was over 24 h in data set [2] (12.5 μg/mL); over 24 h in data set [2] (25 μg/mL); over 24 h in data set [2] (50 μg/mL); over 24 h in data set [2] (100 μg/mL); “Greater than 72 hours (partial clotting)” in data set [3] (0.2 mg/mL alexidine); “Greater than 72 hours (partial clotting)” in data set [3] (0.3 mg/mL alexidine). In data set [2] (thrombin clotting time, fluid phase), the “potency in inhibiting blood clotting relative to chlorhexidine” value is “four times more potent”.
As for `N=C(NCCCCCCNC(=N)NC(=N)Nc1ccc(Cl)cc1)NC(=N)Nc1ccc(Cl)cc1.O=C(O)[C@H](O)[C@@H](O)[C@H](O)[C@H](O)CO.O=C(O)[C@H](O)[C@@H](O)[C@H](O)[C@H](O)CO` [CHG, chlorhexidine gluconate], the solubility in water entry in data set [1] is recorded as “highly soluble in water”.
On to `[H]/N=C(\N/C(=N/[H])NCCCCCCNC(=N)NC(=N)Nc1ccc(Cl)cc1)Nc1ccc(Cl)cc1` [chlorhexidine], for which the clotting time entry in data set [2] is given as “about thirty”. The “Thrombin Clotting Time in whole blood” value in data set [2] (50 μg/mL) and in data set [2] (100 μg/mL) was over 24 h throughout.
